Results reported in PMC6112376, “Comprehensive Analyses and Prioritization of Tox21 10K Chemicals Affecting Mitochondrial Function by in-Depth Mechanistic Studies” (Environmental Health Perspectives, 2018).
Read-outs that look alike come from different tables or passages of the source.

Legend:
HepG2 cells [1] = settings: for IC50: read-out: MMP assays IC50 (µM) HepG2
HepG2 cells [2] = settings: cited from earlier work
rat primary hepatocytes = experiment: MMP assay in rat primary hepatocytes; settings: for IC50: read-out: MMP assays IC50 (µM) Rat Hepatocytes
[3] = tested on: isolated rat liver mitochondria; experiment: Oxygen consumption, Clark-type oxygen electrode; assay type: biochemical; settings: for I-ADP, % of control (O2 consumption rate): glutamate/malate driven state 3 respiration; for I-ADP, % of control (O2 consumption rate) / I-sub, % of control (O2 consumption rate) / II-ADP, % of control (O2 consumption rate) / II-sub, % of control (O2 consumption rate): isolated rat liver mitochondria; for I-sub, % of control (O2 consumption rate): glutamate/malate driven state 4 respiration; for II-ADP, % of control (O2 consumption rate): succinate-driven state 3 respiration; for II-sub, % of control (O2 consumption rate): succinate-driven state 4 respiration
HepG2 cells [4] = experiment: cells; settings: Homo sapiens
[5] = HepG2 cells, single number from one experiment
[6] = read-out: MMP assays IC50 (µM) qHTS-HepG2
[7] = rat hepatocytes, mean ± SD of three experiments
[8] = read-out: MMP assays IC50 (µM), qHTS-HepG2

| Structure (SMILES) | MMP assays efficacy (%) HepG2 (HepG2 cells [1]; [5]) | IC50 (HepG2 cells [1]; [5]) [µM] | MMP assays efficacy (%) qHTS-HepG2 (HepG2 cells [2]) | IC50 (HepG2 cells [2]; [6]) [µM] | MMP assays IC50 (µM) Rat Hepatocytes (rat primary hepatocytes; [7]) | MMP assays efficacy (%) Rat Hepatocytes (rat primary hepatocytes; [7]) | IC50 (rat primary hepatocytes; [7]) [µM] | further results |
| --- | --- | --- | --- | --- | --- | --- | --- | --- |
| Oc1ccc(Cc2ccccc2O)cc1 [2-(4-Hydroxybenzyl)phenol] | -87% | 35.5 | -89±11% | 27.5 ± 1.92 | inactive | inactive | – | – |
| CCCCCCCCCCCC[n+]1ccc2ccccc2c1.Cc1ccc(S(=O)(=O)[O-])cc1 [2-Dodecylisoquinolinium tosylate] | -110% | 4.35 | -83±5% | 3.53 ± 0.5 | – | -95±7% | 4.94 ± 2.78 | – |
| CO[C@H]1C[C@H](O[C@H]2[C@H](C)O[C@@H](O[C@@H]3/C(C)=C/C[C@@H]4C[C@@H](C[C@]5(C=C[C@H](C)[C@@H](C6CCCCC6)O5)O4)OC(=O)[C@@H]4C=C(C)[C@@H](O)[C@H]5OC/C(=C\C=C\[C@@H]3C)[C@]54O)C[C@@H]2OC)O[C@@H](C)[C@@H]1O [Doramectin] | -117% | 17.3 | -80±13% | 11.9 | inactive | inactive | – | – |
| CC(=O)OCCN(CCOC(C)=O)c1ccc(N=Nc2ccc([N+](=O)[O-])cc2C#N)cc1 [Disperse Red 82] | -71% | 6.31 | -87±5% | 8 ± 1.45 | – | -59±9% | 11.7 ± 8.76 | – |
| CCOc1ccc2[nH]cc(C(=O)NCc3ccccc3)c(=O)c2n1 | -92% | 15.8 | -88±7% | – | – | -80±31% | 24 ± 16.6 | IC50 (HepG2 cells [2]; [8]): 14.8 ± 9.66 µM |
| CCC(=C(CC)c1ccc(O)cc1)c1ccc(O)cc1 [(Z,E)-Diethylstilbestrol] | – | – | -98±10% | – | – | – | – | MMP assays efficacy (%) HepG2 (HepG2 cells [1]): -104%; IC50 (rat primary hepatocytes): 42.8 ± 10.3 µM |
| OC1CCCCCCCCCCC1 [Cyclododecanol] | inactive | – | -66±13% | 48.8 ± 3.84 | inactive | inactive | – | MMP assays IC50 (µM) HepG2 (HepG2 cells [1]; [5]): inactive |
| CCOC(=O)c1ccccc1C(=C1C=C(Br)C(=O)C(Br)=C1)c1cc(Br)c(O)c(Br)c1 [Tetrabromophenolphthalein ethyl ester] | -129% | 26.6 | -105±26% | – | – | -101±25% | 13.8 ± 0.94 | IC50 (HepG2 cells [2]; [8]): 23.8 ± 6.89 µM |
| CCCOc1ccc2nc(NC(=O)OC)sc2c1 [Tioxidazole] | -62% | 15.5 | -70±6% | – | – | -65±43% | 13 ± 1.06 | IC50 (HepG2 cells [2]; [8]): 7.5 ± 1.75 µM |
| CC(C)(C)c1cc(Cc2cc(C(C)(C)C)c(O)c(C(C)(C)C)c2)cc(C(C)(C)C)c1O [4,4'-Methylenebis(2,6-di-t-butylphenol)] | inactive | – | inactive | – | inactive | inactive | – | MMP assays IC50 (µM) HepG2 (HepG2 cells [1]; [5]): inactive; MMP assays IC50 (µM) qHTS-HepG2 (HepG2 cells [2]): inactive |
| CCCCCCCCCCCCOC(=O)c1ccc(O)cc1 [Dodecylparaben] | -106% | 7.94 | -107±9% | 4.19 ± 1.07 | inactive | inactive | – | – |
| O=C([O-])c1cc(=O)c2c3nc4ccccc4oc-3cc(=O)c2[nH]1.[Na+] [Pirenoxine sodium] | inactive | – | -54±10% | – | inactive | inactive | – | MMP assays IC50 (µM) HepG2 (HepG2 cells [1]; [5]): inactive; IC50 (HepG2 cells [2]; [8]): 21.1 ± 17.8 µM |
| CC(O)C(=O)O.CCOc1ccc2nc3cc(N)ccc3c(N)c2c1.O [Ethacridine lactate hydrate] | – | 5.48 | -103±8% | 3.22 ± 0.55 | – | -98±24% | 10.2 ± 5.58 | – |
| CCCCCCCC[n+]1ccn(C)c1.O=S(=O)([O-])C(F)(F)F [1-Methyl-3-octylimidazolium trifluoromethanesulfonate] | -84% | 15.8 | -58±19% | 8.38 ± 4.29 | – | -82±36% | 31.6 | – |
| Cc1cc2c(cc1C(F)(F)F)N(C(=O)Nc1ccc(Oc3cccnc3C)nc1)CC2.Cl | -104% | 2 | -159±11% | 14.4 ± 5.99 | – | -98±10% | 6.15 ± 3.62 | – |
| Oc1ccc(Cl)cc1C1CCCC1 [Compound 4-Chloro-2-cyclopentylphenol] | -99% | 6.31 | -99±4% | 5.66 ± 1.93 | – | -85±8% | 33.6 ± 29.7 | – |
| O=C(O)C(=O)Cc1c[nH]c2ccccc12 [Indole-3-pyruvic acid] | -89% | 11.2 | -85±21% | – | – | -72±42% | 21.3 ± 17.9 | IC50 (HepG2 cells [2]; [8]): 28.9 ± 16.7 µM |
| CCc1ccc(O)cc1 [Compound 4-Ethylphenol] | inactive | – | inactive | – | inactive | inactive | – | MMP assays IC50 (µM) HepG2 (HepG2 cells [1]; [5]): inactive; MMP assays IC50 (µM) qHTS-HepG2 (HepG2 cells [2]): inactive |
| NNc1nc(-c2ccc([N+](=O)[O-])cc2)cs1 [2-Hydrazino-4-(4-nitrophenyl) thiazole] | – | – | – | – | – | – | – | I-ADP, % of control (O2 consumption rate) ([3]; 20 µM): 103 (50.6) % of control; I-sub, % of control (O2 consumption rate) ([3]; 20 µM): 119 (19.1) % of control; II-ADP, % of control (O2 consumption rate) ([3]; 20 µM): 98 (76.1) % of control; II-sub, % of control (O2 consumption rate) ([3]; 20 µM): 99 (30.4) % of control; I-ADP, % of control (O2 consumption rate) ([3]; 100 µM): 61 (32.3) % of control; I-sub, % of control (O2 consumption rate) ([3]; 100 µM): 159 (21.4) % of control; II-ADP, % of control (O2 consumption rate) ([3]; 100 µM): 114 (77.1) % of control; II-sub, % of control (O2 consumption rate) ([3]; 100 µM): 153 (33.1) % of control; Potential Mechanism ([3]; mitochondrial respiration in isolated rat liver mitochondria, Clark type oxygen electrode, over tested concentrations): Uncoupler + inhibitor |
| CCCCCCCCCCCCCC[P+](CCCCCC)(CCCCCC)CCCCCC.F[P-](F)(F)(F)(F)F [Trihexyltetradecylphosphonium hexafluorophosphate] | -91% | 1.12 | – | – | inactive | inactive | – | – |
| CCCCCCCC[n+]1ccn(C)c1.F[P-](F)(F)(F)(F)F [1-Methyl-3-octylimidazolium hexafluorophosphate] | -77% | 25.1 | – | – | – | -86±43% | 39.8 | – |
| CCCCCCCCCCCCn1cc[n+](C)c1.F[P-](F)(F)(F)(F)F | -119% | 5.01 | – | – | – | -111±27% | 8.81 ± 2.46 | – |
| Cc1cc(O)c(C(C)(C)C)cc1C(C)(C)C [4,6-Di-tert-butyl-m-cresol] | – | – | – | 2.25 ± 1.49 | – | -103±14% | – | IC50 (HepG2 cells [4]; HepG2, read-out: MMP assays IC50 (µM) HepG2): 2.51 µM; Emax (HepG2 cells [4]; HepG2, read-out: MMP assays efficacy (%) HepG2): 96%; IC50 (rat primary hepatocytes; Rattus norvegicus, Hepatocyte): 45.9 ± 14.7 µM |
